This is an account of results in patent US5965539A, “Inhibitors of prenyl transferases” (Univeristy of Pittsburgh, priority 1996, dated 1999).

Where two headings read alike, the source gives them in different places. Bounds are passed on as bounds.

One test deals with T1, GGTase I (Homo sapiens, UniProt P53609).
T1 construct: FTase and GGTase I activities from 60,000×g supernatants of human Burkitt lymphoma (Daudi) cells; endogenous in cells; host or cells: human Burkitt lymphoma (Daudi) cells, 60,000xg supernatant (partially purified)
T1 sequence (P53609 whole entry): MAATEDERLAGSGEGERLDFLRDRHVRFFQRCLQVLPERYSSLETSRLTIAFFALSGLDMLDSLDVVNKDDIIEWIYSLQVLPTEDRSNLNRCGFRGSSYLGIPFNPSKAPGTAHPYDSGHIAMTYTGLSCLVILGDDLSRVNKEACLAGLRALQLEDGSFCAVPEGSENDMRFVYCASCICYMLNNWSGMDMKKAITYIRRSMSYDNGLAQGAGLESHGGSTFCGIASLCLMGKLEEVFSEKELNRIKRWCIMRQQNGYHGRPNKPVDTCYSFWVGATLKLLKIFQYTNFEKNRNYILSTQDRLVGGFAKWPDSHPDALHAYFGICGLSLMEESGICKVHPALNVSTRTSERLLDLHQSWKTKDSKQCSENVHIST
Briefly: GGTase I activity assay: transfer of [3H]geranylgeranyl to recombinant H-Ras-CVLL, Daudi 60,000xg supernatant. The format is biochemical. As to the method:
FTase and GGTase I activities from 60,000×g supernatants of human Burkitt lymphoma (Daudi) cells (ATCC, Rockville, Md., USA) were assayed as described previously for FTase (41). Briefly, 100 μg of the supernatant was incubated in 50 mM Tris, pH 7.5, 50 μM ZnCl2, 20 mM KCl and 1 mM dithiothreitol (DTT). The reaction was incubated at […] for 30 min with recombinant Ha-Ras-CVLS (11 μM) and [^3 H]FPP (625 nM; 16.3 Ci/mmol) for FTase, and recombinant Ha-Ras-CVLL (5 μM) and [^3 H]geranylgeranylpyrophosphate (525 nM; 19.0 Ci/mmol) for GGTase I. The peptidomimetics were mixed with FTase and GGTase before adding to the reaction mixture.
(§1) Human Burkitt lymphoma (Daudi) cells (ATCC, Rockville, Md.) were grown in suspension in RPMI 1640 medium containing 10% fetal bovine serum (FBS) and 1% Pen-Strep in a humidified 10% CO2 incubator at 37° C. The cells were harvested and sonicated in 50 mM Tris, pH 7.5, 1 mM EDTA, 1 mM EGTA, 25 μg/ml leupeptin, 1 mM phenylmethylsulfonyl fluoride. Homogenates were then spun at 12,000×g and the resulting supernatant further spun at 60,000×g. The supernatant was assayed for both FTase and GGTase I. Briefly, 100 μg of the supernatants was incubated in 50 mM Tris, pH 7.5, 50 μM ZnCl2, 20 mM KCl, 3 mM MgCl2 and 1 mM DTT. For FTase assays, the reaction was incubated at 37° C. for 30 minutes with recombinant H-Ras-CVLS (11 μM) and [^3 H] FPP (625 nM; 16.3 Ci/mmol). For GGTase assays, the reaction was also incubated for 30 minutes at 37° C. but with recombinant H-Ras-CVLL (5 μM) and [^3 H] GGPP (525 nM; 19.0 Ci/mmol). The reaction was stopped and passed through glass fiber filters to separate free and incorporated label. For inhibition studies, the peptidomimetics were premixed with FTase or GGTase I prior to adding the remainder of the reaction mixture. Recombinant H-Ras-CVLS was prepared as described previously (26) from bacteria (31). Recombinant H-Ras-CVLL was prepared from bacteria (32).
FTase and GGTase I activities from 60,000×g supernatants of human Burkitt lymphoma (Daudi) cells (ATCC, Rockville, Md.) were assayed exactly as described previously for FTase (41). Inhibition studies were performed by determining the ability of Ras CAAX peptidomimetics to inhibit the transfer of [^3 H]-farnesyl and [^3 H]-geranylgeranyl from [^3 H]FPP and [^3 H]GGPP to H-ras-CVLS and H-Ras-CVLL, respectively (41).

Another test has as its target T2, FTase (Homo sapiens, UniProt P49356).
T2 construct: FTase and GGTase I activities from 60,000×g supernatants of human Burkitt lymphoma (Daudi) cells; endogenous in cells; host or cells: human Burkitt lymphoma (Daudi) cells, 60,000xg supernatant (partially purified)
Put plainly: FTase activity assay: transfer of [3H]farnesyl from FPP to recombinant H-Ras-CVLS, Daudi 60,000xg supernatant. The format is biochemical. As to conditions: for Selectivity: FTase over GGTase I; for IC50: read-out: FTase IC50; for GG/F: ratio GGTase I IC50 / FTase IC50. On the procedure:
FTase and GGTase I activities from 60,000×g supernatants of human Burkitt lymphoma (Daudi) cells (ATCC, Rockville, Md., USA) were assayed as described previously for FTase (41). Briefly, 100 μg of the supernatant was incubated in 50 mM Tris, pH 7.5, 50 μM ZnCl2, 20 mM KCl and 1 mM dithiothreitol (DTT).
as §1, with “For FTase assays, the reaction was incubated at 37° C. for 30 minutes with recombinant H-Ras-CVLS (11 μM) and [^3 H]” left out, “Recombinant H-Ras-CVLS was prepared as described previously (26) from bacteria (31).” left out
FTase and GGTase I activities from 60,000×g supernatants of human Burkitt lymphoma (Daudi) cells (ATCC, Rockville, Md.) were assayed exactly as described previously for FTase (41).

The mark [1] stands for this setting: Table 4, read-out: GGTase-I IC50.
Where [2] appears, read: Table 1, read-out: GGTase I IC50.

T2 sequence (P49356 whole entry): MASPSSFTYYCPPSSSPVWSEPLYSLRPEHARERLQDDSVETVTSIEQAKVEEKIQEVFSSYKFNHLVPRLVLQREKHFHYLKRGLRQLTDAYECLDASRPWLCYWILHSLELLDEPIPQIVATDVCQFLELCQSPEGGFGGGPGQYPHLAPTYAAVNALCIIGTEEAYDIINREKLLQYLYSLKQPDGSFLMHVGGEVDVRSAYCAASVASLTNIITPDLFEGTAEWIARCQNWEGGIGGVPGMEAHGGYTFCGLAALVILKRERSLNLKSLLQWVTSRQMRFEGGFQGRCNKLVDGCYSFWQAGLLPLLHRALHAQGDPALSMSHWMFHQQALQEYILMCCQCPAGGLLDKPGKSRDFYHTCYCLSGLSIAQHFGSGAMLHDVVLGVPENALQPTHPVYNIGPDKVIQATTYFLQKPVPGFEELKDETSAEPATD

As for `N[C@@H](CS)CNc1ccc(-c2ccccc2C(=O)O)cc1` [FTI-273, 4-N-[2(R)-Amino-3-mercaptopropyl]amino-2'-carboxybiphenyl], on GGTase I (setting [1]), the IC50 came to 140 µM. For the same compound, on FTase (Table 4), the Selectivity was determined as 258 and the concentration for half-maximal inhibition (IC50) was found to be 0.543 µM.

In the case of `COC(=O)C(CCSC)NC(=O)c1ccc(NC(=O)C(N)CS)cc1-c1ccccc1.Cl` (centres unmarked) [FTI-274, HCl.cysteine-4-amino-2-phenylbenzoyl methionine methyl ester], the IC50 on GGTase I (setting [2]) amounted to 30 µM. Also, on FTase (Table 1), the GG/F was 15 and the IC50 is 2.05 µM.

For the compound `N[C@@H](CS)C(=O)Nc1ccc(-c2cccc(C(=O)O)c2)cc1` [FTI-278, Cysteinyl-4-amino-3'-carboxybiphenyl], the figures for the IC50 at GGTase I (setting [1]) and on FTase (Table 4) were 100 µM and 13.5 µM, respectively. Moreover, the Selectivity at FTase (Table 4) is 7.

Turning to “HCl-cysteine-4-aminobenzoyl methionine [FTI-232]”, the IC50 at GGTase I (setting [2]) amounted to 1.2 µM; at GGTase I (setting [1]) it was 1.5 µM; at FTase (Table 1), 0.213 µM; at FTase (Table 4), 0.15 µM. Besides, the “selectivity for FTase over GGTase I” value on FTase amounted to 10 fold. At FTase (Table 1), the GG/F is given as 6. For the same compound, at FTase (Table 4), the Selectivity stood at 10.

As to `NCC(N)C(=O)Nc1ccc(-c2cccc(C(=O)O)c2)cc1` (centres unmarked) [FTI-291, 4-(3-Aminoalanyl)-amino-3'-carboxybiphenyl], on FTase (Table 4), the IC50 stood at 210 µM.

For `NC[C@H](N)CNc1ccc(-c2cccc(C(=O)O)c2)cc1` [FTI-292, (L)4(2,3-diaminopropyl)-amino-3'-carboxybiphenyl], at FTase (Table 4), the IC50 was determined as 60 µM.

Turning to “4-(Vinylsulfonyl-3-aminoalanyl)-amino-3'-carboxybiphenyl [FTI-296]”, the values for the IC50 on GGTase I (setting [1]) and on FTase (Table 4) were over 1000 µM and 430 µM, respectively. Moreover, the Selectivity at FTase (Table 4) was over 2.

In the case of `CSCC[C@H](NC(=O)c1ccc(NC(=O)[C@@H](N)CS)cc1-c1cc(C)cc(C)c1)C(=O)O.O=C(O)C(F)(F)F` [FTI-275, TFA.Cysteine-4-amino-2-(3,5-dimethylphenyl)benzoyl methionine], the 50% inhibitory concentration (IC50) amounted to 0.4 µM on GGTase I (setting [2]) and 0.405 µM at FTase (Table 1). Further, on FTase (Table 1), the GG/F is 1.

In the case of `CCS(=O)(=O)NCC(N)C(=O)Nc1ccc(-c2cccc(C(=O)O)c2)cc1` (centres unmarked) [FTI-295, 4-(Ethylsulfonyl-3-aminoalanyl)-amino-3'-carboxy-biphenyl], on GGTase I (setting [1]), the IC50 was over 1000 µM. Moreover, on FTase (Table 4), the Selectivity is over 5 and the IC50 was 200 µM.

“TFA.cysteine-4-amino-3-methylbenzoyl methionine [FTI-260]”: on GGTase I (setting [2]), the IC50 came to 9 µM. At FTase (Table 1), the GG/F is given as 11 and the IC50 is 0.825 µM.

As to `N[C@@H](CS)CNCc1cccc(-c2cccc(C(=O)O)c2)c1` [FTI-283, red.Cys-3-aminomethyl-3'-carboxybiphenyl], the IC50 on GGTase I (setting [1]) was determined as 35 µM. Further, at FTase (Table 4), the Selectivity came out at 3 and the IC50 came to 11 µM.

Regarding `NCC(N)CNc1ccc(-c2cccc(C(=O)O)c2)cc1` (stereo not drawn) [FTI-282, (DL) 4-(2,3-diaminopropyl)-amino-3' carboxybiphenyl], at FTase (Table 4), the Selectivity is over 2 and the 50% inhibitory concentration (IC50) turned out to be 50 µM.

Turning to `N[C@@H](CS)CNc1ccc(-c2cccc(-c3nnn[nH]3)c2)cc1` [FTI-2102, red.Cys-4-amino-3'-tetrazolylbiphenyl], the IC50 at GGTase I (setting [1]) is 5 µM. Besides, on FTase (Table 4), the Selectivity was found to be 187 and the IC50 was 0.03 µM.

For `CSCC[C@H](NC(=O)c1ccc(NC(=O)[C@@H](N)CS)cc1-c1ccccc1)C(=O)O.O=C(O)C(F)(F)F` [FTI-272, TFA.Cysteine-4-amino-2-phenylbenzoyl methionine], the IC50 at GGTase I (setting [2]) is 0.267 µM. At FTase (Table 1), the GG/F is 53 and the half-maximal inhibitory concentration (IC50) amounted to 0.005 µM.

In the case of “TFA.cysteine-4-amino-1-naphthoyl methionine [FTI-270]”, the half-inhibitory concentration (IC50) at GGTase I (setting [2]) is 3.15 µM. In addition, at FTase (Table 1), the GG/F worked out at 22 and the IC50 turned out to be 0.143 µM.

Broadly, the IC50 is the point on the concentration scale where inhibition reaches its midpoint.
